Assay results from patent publication US9446039B2, “Aminoheteroaryl compounds as MTH1 inhibitors” (CEMM—FORSCHUNGSZENTRUM FÜR MOLEKULARE MEDIZIN GMBH, priority 2012, dated 2016).

Legend:
Format in all cases: binding
[1] = target: SW480 colon carcinoma cells lysate proteins (Homo sapiens, UniProt Q9NZI8); details: PreyGene IGF2BP1; SW480 cells
[2] = target: SW480 colon carcinoma cells lysate proteins (Homo sapiens, UniProt O00571); details: PreyGene DDX3X
[3] = target: T1, SW480 colon carcinoma cells lysate proteins (Homo sapiens, UniProt Q07021); details: PreyGene C1QBP
T1 sequence (Q07021 74-282): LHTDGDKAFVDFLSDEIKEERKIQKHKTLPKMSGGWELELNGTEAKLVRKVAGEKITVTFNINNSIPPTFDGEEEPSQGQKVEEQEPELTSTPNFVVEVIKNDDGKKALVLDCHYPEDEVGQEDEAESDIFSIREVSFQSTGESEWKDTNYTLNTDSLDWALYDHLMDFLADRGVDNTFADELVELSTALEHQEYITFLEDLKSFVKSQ

[4] = target: T2, SW480 colon carcinoma cells lysate proteins (Homo sapiens, UniProt P51659); details: PreyGene HSD17B4
T2 sequence (P51659 1-736): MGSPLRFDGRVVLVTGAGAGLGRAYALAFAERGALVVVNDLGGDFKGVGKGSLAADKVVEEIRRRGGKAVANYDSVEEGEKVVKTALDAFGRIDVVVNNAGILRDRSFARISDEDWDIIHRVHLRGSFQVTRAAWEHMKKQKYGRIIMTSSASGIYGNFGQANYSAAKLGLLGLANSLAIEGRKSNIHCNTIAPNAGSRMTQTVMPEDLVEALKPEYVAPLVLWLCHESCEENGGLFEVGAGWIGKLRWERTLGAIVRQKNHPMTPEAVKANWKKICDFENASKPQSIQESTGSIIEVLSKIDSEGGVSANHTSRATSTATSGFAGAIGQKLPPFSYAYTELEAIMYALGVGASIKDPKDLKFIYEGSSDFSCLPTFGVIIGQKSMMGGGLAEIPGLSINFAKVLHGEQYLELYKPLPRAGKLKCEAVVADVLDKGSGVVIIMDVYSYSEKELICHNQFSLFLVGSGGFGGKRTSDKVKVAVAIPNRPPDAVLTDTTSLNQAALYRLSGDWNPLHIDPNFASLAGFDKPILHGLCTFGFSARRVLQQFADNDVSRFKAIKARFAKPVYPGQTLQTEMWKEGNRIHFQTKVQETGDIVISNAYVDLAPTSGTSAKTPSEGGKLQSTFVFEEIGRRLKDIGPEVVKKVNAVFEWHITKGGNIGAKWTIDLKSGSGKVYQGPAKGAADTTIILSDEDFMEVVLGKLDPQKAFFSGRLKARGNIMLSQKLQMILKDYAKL

[5] = target: SW480 colon carcinoma cells lysate proteins (Homo sapiens, UniProt Q07812); details: PreyGene BAX; SW480 cells
Sequence of SW480 colon carcinoma cells lysate proteins (Homo sapiens, UniProt Q07812) (Q07812 whole entry): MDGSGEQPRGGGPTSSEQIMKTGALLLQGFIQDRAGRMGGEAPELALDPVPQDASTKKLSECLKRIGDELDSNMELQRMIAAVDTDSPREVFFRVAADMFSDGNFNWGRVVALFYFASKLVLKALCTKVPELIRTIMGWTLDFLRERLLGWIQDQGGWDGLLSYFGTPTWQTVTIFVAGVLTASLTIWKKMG

[6] = target: T3, SW480 colon carcinoma cells lysate proteins (Homo sapiens, UniProt P37837); details: PreyGene TALDO1
T3 sequence (P37837 1-337): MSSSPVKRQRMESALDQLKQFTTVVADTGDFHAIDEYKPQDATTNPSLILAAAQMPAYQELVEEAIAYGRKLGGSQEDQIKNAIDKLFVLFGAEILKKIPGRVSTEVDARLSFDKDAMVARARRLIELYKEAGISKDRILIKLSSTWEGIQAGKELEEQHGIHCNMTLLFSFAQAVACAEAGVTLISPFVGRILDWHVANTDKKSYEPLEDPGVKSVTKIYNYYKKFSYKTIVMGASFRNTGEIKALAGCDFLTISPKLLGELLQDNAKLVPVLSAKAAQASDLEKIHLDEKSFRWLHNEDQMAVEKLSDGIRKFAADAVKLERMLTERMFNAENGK

[7] = target: SW480 colon carcinoma cells lysate proteins (Homo sapiens, UniProt P17980); details: PreyGene PSMC3
Sequence of SW480 colon carcinoma cells lysate proteins (Homo sapiens, UniProt P17980) (P17980 whole entry): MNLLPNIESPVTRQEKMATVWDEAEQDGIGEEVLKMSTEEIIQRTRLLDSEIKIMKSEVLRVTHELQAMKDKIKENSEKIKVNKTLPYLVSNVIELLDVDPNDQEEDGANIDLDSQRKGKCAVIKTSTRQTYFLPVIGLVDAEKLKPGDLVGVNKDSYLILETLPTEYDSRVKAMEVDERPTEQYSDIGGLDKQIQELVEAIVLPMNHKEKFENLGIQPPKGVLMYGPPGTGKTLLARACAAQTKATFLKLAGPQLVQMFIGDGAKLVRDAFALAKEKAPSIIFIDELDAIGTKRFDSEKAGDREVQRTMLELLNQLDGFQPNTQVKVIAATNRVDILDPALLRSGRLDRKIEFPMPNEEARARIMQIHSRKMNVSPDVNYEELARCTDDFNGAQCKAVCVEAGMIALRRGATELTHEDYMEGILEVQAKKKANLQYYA

[8] = target: T4, SW480 colon carcinoma cells lysate proteins (Homo sapiens, UniProt O60664); details: PreyGene PLIN3
T4 sequence (O60664 1-434): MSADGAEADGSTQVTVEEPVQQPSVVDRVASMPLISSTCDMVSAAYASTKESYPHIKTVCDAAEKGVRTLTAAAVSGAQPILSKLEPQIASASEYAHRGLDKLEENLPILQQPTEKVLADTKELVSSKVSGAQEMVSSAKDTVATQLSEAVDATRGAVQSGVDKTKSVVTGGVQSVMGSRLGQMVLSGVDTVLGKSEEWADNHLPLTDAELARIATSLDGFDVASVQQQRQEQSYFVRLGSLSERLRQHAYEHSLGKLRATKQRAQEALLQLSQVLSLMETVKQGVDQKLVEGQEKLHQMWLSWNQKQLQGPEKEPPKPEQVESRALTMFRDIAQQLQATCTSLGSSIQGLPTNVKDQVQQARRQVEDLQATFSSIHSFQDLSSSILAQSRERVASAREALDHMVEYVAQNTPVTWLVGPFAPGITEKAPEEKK

[9] = target: SW480 colon carcinoma cells lysate proteins (Homo sapiens, UniProt P62136); details: PreyGene PPP1CA
Sequence of SW480 colon carcinoma cells lysate proteins (Homo sapiens, UniProt P62136) (P62136 whole entry): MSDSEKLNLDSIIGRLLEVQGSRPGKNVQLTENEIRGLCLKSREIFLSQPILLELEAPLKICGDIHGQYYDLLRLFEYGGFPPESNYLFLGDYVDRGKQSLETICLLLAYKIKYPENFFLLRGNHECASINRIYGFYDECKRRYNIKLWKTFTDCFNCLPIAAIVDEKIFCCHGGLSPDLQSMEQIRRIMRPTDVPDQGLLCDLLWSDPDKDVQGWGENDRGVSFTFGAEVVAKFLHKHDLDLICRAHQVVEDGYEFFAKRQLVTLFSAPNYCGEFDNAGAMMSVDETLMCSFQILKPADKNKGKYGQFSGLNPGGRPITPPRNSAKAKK

Sequence of SW480 colon carcinoma cells lysate proteins (Homo sapiens, UniProt O00571) (O00571 whole entry): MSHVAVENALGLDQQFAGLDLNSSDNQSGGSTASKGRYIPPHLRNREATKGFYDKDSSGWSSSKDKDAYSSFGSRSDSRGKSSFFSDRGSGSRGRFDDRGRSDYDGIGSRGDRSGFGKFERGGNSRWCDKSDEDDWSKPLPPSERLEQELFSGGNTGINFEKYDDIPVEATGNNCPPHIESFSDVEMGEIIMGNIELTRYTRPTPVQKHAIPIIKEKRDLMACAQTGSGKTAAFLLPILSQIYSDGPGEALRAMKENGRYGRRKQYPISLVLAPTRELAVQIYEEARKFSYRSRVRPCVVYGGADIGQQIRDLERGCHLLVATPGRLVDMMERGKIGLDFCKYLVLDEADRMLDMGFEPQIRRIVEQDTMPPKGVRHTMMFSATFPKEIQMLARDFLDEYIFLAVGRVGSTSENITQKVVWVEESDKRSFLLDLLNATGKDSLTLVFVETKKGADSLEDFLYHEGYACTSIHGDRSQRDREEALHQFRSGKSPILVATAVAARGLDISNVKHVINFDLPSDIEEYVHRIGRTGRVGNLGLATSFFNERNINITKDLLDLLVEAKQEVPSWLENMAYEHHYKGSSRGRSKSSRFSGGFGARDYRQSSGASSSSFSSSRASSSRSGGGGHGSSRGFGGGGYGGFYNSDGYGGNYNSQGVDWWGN
Sequence of SW480 colon carcinoma cells lysate proteins (Homo sapiens, UniProt Q9NZI8) (Q9NZI8 whole entry): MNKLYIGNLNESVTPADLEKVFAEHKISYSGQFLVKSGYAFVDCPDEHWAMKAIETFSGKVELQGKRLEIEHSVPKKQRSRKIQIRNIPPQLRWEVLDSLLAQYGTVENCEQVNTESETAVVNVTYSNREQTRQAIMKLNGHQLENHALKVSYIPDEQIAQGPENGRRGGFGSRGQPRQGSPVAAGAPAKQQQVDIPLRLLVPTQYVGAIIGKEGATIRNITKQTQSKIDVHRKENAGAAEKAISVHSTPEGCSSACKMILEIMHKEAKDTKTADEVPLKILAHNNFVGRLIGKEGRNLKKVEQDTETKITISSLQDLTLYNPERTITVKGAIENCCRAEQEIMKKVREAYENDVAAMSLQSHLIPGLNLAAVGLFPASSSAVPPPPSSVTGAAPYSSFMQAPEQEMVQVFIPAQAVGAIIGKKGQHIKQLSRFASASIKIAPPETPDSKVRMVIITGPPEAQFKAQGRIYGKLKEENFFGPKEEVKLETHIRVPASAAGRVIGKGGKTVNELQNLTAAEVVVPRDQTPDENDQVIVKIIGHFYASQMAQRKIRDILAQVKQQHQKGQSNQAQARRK

C[C@H](Oc1cc(-c2cnn(C3CCNCC3)c2)cnc1N)c1c(Cl)ccc(F)c1Cl [(5)-crizotinib]
AvgP [1]: 0 | SC.Exp. 1-1 [1]: 4 | SC.Exp. 1-2 [1]: 8 | SC.Exp. 2-1 [1]: 4 | SC.Exp. 2-2 [1]: 6 | SC.Exp. Sum [1]: 22 | AvgP [2]: 0.7764 | SC.Exp. 1-1 [2]: 2 | SC.Exp. 1-2 [2]: 2 | SC.Exp. 2-1 [2]: 1 | SC.Exp. 2-2 [2]: 2 | Sum (SC.Exp.) [2]: 7 | AvgP [3]: 0.33 | SC.Exp. 1-1 [3]: 3 | SC.Exp. 1-2 [3]: 3 | SC.Exp. 2-1 [3]: 0 | SC.Exp. 2-2 [3]: 0 | Sum (SC.Exp.) [3]: 6 | AvgP [4]: 0.3179 | SC.Exp. 1-1 [4]: 2 | SC.Exp. 1-2 [4]: 3 | SC.Exp. 2-1 [4]: 0 | SC.Exp. 2-2 [4]: 0 | Sum (SC.Exp.) [4]: 5 | AvgP [5]: 0 | SC.Exp. 1-1 [5]: 1 | SC.Exp. 1-2 [5]: 1 | SC.Exp. 2-1 [5]: 1 | SC.Exp. 2-2 [5]: 1 | SC.Exp. Sum [5]: 4 | AvgP [6]: 0.3739 | SC.Exp. 1-1 [6]: 2 | SC.Exp. 1-2 [6]: 2 | SC.Exp. 2-1 [6]: 0 | SC.Exp. 2-2 [6]: 0 | Sum (SC.Exp.) [6]: 4 | AvgP [7]: 0.4297 | SC.Exp. 1-1 [7]: 3 | SC.Exp. 1-2 [7]: 3 | SC.Exp. 2-1 [7]: 0 | SC.Exp. 2-2 [7]: 0 | Sum (SC.Exp.) [7]: 6 | AvgP [8]: 0.8429 | SC.Exp. 1-1 [8]: 4 | SC.Exp. 1-2 [8]: 3 | SC.Exp. 2-1 [8]: 3 | SC.Exp. 2-2 [8]: 3 | Sum (SC.Exp.) [8]: 13 | AvgP [9]: 0.3721 | SC.Exp. 1-1 [9]: 2 | SC.Exp. 1-2 [9]: 2 | SC.Exp. 2-1 [9]: 0 | SC.Exp. 2-2 [9]: 0 | Sum (SC.Exp.) [9]: 4
